From DBAASP
Converted amounts (≈) assume the structure as drawn. “And” between values parts separate entries of the source, which are not always exact repeats. Equal entries are not always repeated.

How the values were obtained:
Assay in all cases: ≥ marks a high value that may be exact or a test limit, other limits are often not marked, values filed in µg/mL are converted to µM
[1] = system: Staphylococcus aureus ATCC 29213
[2] = system: Micrococcus luteus VKM B-1314
[3] = system: Escherichia coli 214
[4] = system: Escherichia coli BL21(DE3)
[5] = system: Escherichia coli 1057
[6] = system: Enterobacter cloacae 4172
[7] = system: Enterococcus faecalis ATCC 29212
[8] = system: Escherichia coli ML-35p
[9] = system: Escherichia coli C600
[10] = system: Escherichia coli
[11] = system: Bacillus subtilis KCTC 1021
[12] = system: Proteus mirabilis ATCC 25933
[13] = system: Pseudomonas aeruginosa ATCC 9027
[14] = system: Salmonella enterica subsp. enterica serovar Typhimurium ATCC 14028
[15] = system: Klebsiella pneumoniae ATCC 10031
[16] = system: Staphylococcus epidermidis ATCC 12228
[17] = system: Saccharomyces cerevisiae
[18] = system: Serratia marcescens
[19] = system: Micrococcus luteus ATCC 4698
[20] = system: Pseudomonas putida
[21] = system: Candida albicans
[22] = system: Shigella dysenteriae ATCC 9752
[23] = system: Pseudomonas aeruginosa ATCC 27853
[24] = system: Candida albicans NCTC 1467
[25] = system: Escherichia coli NCTC 10418
[26] = system: Staphylococcus aureus NCTC 10788
[27] = system: Staphylococcus aureus ATCC 12493
[28] = system: Enterococcus faecalis NCTC 12697
[29] = system: Escherichia coli D31
[30] = system: Klebsiella pneumoniae ATCC 700603
[31] = system: Staphylococcus aureus ATCC 27660
[32] = system: Pseudomonas aeruginosa ATCC 10145
[33] = system: Serratia marcescens ATCC 13880
[34] = system: Klebsiella oxytoca ATCC 13182
[35] = system: Klebsiella pneumoniae KpC+001825971
[36] = system: Staphylococcus aureus ATCC 80958
[37] = system: Escherichia coli ATCC 35218
[38] = system: Escherichia coli ATCC 25922
[39] = system: Klebsiella aerogenes ATCC 35029
[40] = system: Staphylococcus aureus ATCC 6538P
[41] = system: Streptococcus pyogenes ATCC 49399
[42] = system: Enterococcus faecalis ATCC 19433
[43] = system: Enterobacter cloacae ATCC 49141
[44] = system: Bacillus megaterium Bm11

In the case of `CC[C@H](C)[C@H](NC(=O)[C@@H]1CCCN1C(=O)CNC(=O)[C@@H](NC(=O)[C@H](Cc1ccccc1)NC(=O)[C@@H]1CCCN1C(=O)CNC(=O)[C@@H](NC(=O)[C@H](CCCCN)NC(=O)[C@H](Cc1cnc[nH]1)NC(=O)[C@H](Cc1c[nH]c2ccccc12)NC(=O)[C@H](CC(C)C)NC(=O)[C@H](CCCN=C(N)N)NC(=O)[C@H](CCCCN)NC(=O)[C@H](CC(C)C)NC(=O)[C@H](CCCCN)NC(=O)[C@H](CCCCN)NC(=O)[C@H](CCCN=C(N)N)NC(=O)[C@H](Cc1ccccc1)NC(=O)[C@H](CCCN=C(N)N)NC(=O)[C@H](CCCCN)NC(=O)[C@H](Cc1ccccc1)NC(=O)[C@H](CCCN=C(N)N)NC(=O)CN)C(C)C)C(C)C)C(=O)N[C@@H](CC(C)C)C(=O)N[C@@H](Cc1cnc[nH]1)C(=O)N[C@@H](Cc1ccc(O)cc1)C(=O)O` [GRFKRFRKKLKRLWHKVGPFVGPILHY], the MIC [1] is reported as 1 µM and 2 µM, the MIC [2] is reported as 0.25 µM and 0.5 µM and the MIC [3] is reported as 0.06 µM (≈ 0.202 µg/mL). The MIC [4] was 0.06 µM (≈ 0.202 µg/mL), the MIC [5] was 0.125 µM (≈ 0.421 µg/mL) and the MIC [6] was 0.125 µM and 0.25 µM. For the same molecule, the MIC [7] was 4 µM and 8 µM, the MIC [8] was 0.06 µM (≈ 0.202 µg/mL) and the MIC [9] was 0.06 µM and 0.125 µM.

An MIC [10] of 19.4 µM (≈ 50 µg/mL), an MIC [11] of 3.89 µM (≈ 9.99 µg/mL) and an MIC [12] of at least 77.8 µM were found for `CC[C@H](C)[C@@H]1NC(=O)[C@H](C)NC(=O)[C@@H](NC(=O)[C@H](Cc2ccccc2)NC(=O)[C@@H](NC(=O)[C@H](CO)NC(=O)[C@@H]2CCCN2C(=O)[C@H](CC(C)C)NC(=O)[C@@H](NC(=O)[C@H](CCCCN)NC(=O)[C@H](CO)NC(=O)[C@H](C)NC(=O)[C@@H](NC(=O)[C@H](CCCCN)NC(=O)[C@H](Cc2ccccc2)NC(=O)[C@H](CC(C)C)NC(=O)[C@H](C)NC(=O)CNC(=O)[C@H](CC(C)C)NC(=O)[C@@H](N)Cc2ccccc2)C(C)C)C(C)C)C(C)C)CSSC[C@@H](C(=O)O)NC(=O)[C@H](CCCCN)NC(=O)[C@H](CCCCN)NC(=O)[C@H]([C@@H](C)O)NC1=O` [FLGALFKVASKVLPSVFCAITKKC] in this work. For the same molecule, the MIC [13] was 38.9 µM (≈ 99.9 µg/mL), the MIC [14] was 77.8 µM (≈ 200 µg/mL) and the MIC [15] was 19.4 µM (≈ 50 µg/mL). It also gave an MIC [16] of 3.89 µM (≈ 9.99 µg/mL), an MIC [17] of 19.4 µM (≈ 50 µg/mL) and an MIC [18] of at least 77.8 µM. For the same molecule, the MIC [19] was 0.972 µM (≈ 2.5 µg/mL), the MIC [20] was 19.4 µM (≈ 50 µg/mL) and the MIC [21] was 19.4 µM (≈ 50 µg/mL). It also gave an MIC [22] of 19.4 µM (≈ 50 µg/mL).

An MIC [23] of over 512 µM, an MIC [24] of at least 512 µM and an MIC [25] of at least 512 µM were found for `CC[C@H](C)[C@H](NC(=O)CN)C(=O)N[C@@H](CCSC)C(=O)N[C@@H](CC(=O)O)C(=O)N[C@H](C(=O)N[C@H](C(=O)N[C@@H](CCCCN)C(=O)N[C@@H](CC(N)=O)C(=O)N[C@@H](C)C(=O)N[C@@H](C)C(=O)N[C@@H](CCCCN)C(=O)N[C@@H](CC(N)=O)C(=O)N[C@@H](CC(C)C)C(=O)N[C@@H](C)C(=O)NCC(=O)N[C@@H](CCC(N)=O)C(=O)N[C@@H](CC(C)C)C(=O)N[C@@H](CC(C)C)C(=O)N[C@@H](CC(=O)O)C(=O)N[C@@H](CCCCN)C(=O)N[C@@H](CC(C)C)C(=O)N[C@@H](CCCCN)C(=O)N[C@H]1CSSC[C@@H](C(=O)O)NC(=O)[C@H](C)NC(=O)[C@H]([C@@H](C)O)NC(=O)[C@H]([C@@H](C)CC)NC(=O)[C@H](CO)NC1=O)C(C)C)[C@@H](C)O` [GIMDTVKNAAKNLAGQLLDKLKCSITAC] in this work. The MIC [26] was at least 512 µM, the MIC [27] was at least 512 µM and the MIC [28] was at least 512 µM.

An MIC [29] of 15 µM (≈ 33.2 µg/mL), an MIC [30] of over 15 µM and an MIC [31] of 15 µM (≈ 33.2 µg/mL) were found for `CC(C)C[C@H](NC(=O)[C@H](CCCCN)NC(=O)[C@H](CCCCN)NC(=O)[C@H](C)NC(=O)[C@H](CCCCN)NC(=O)[C@H](CCCCN)NC(=O)[C@H](C)NC(=O)CNC(=O)[C@H](CCCCN)NC(=O)[C@H](C)NC(=O)[C@H](Cc1c[nH]c2ccccc12)NC(=O)[C@H](C)NC(=O)[C@H](CCCCN)NC(=O)[C@H](C)NC(=O)[C@H](C)NC(=O)[C@H](CCCCN)NC(=O)[C@@H](N)CCCCN)C(=O)N[C@@H](C)C(=O)N[C@@H](CCCCN)C(=O)NCC(=O)N[C@@H](C)C(=O)NCC(=O)O` [KKAAKAWAKGAKKAKKLAKGAG] in this work. The MIC [32] was 15 µM (≈ 33.2 µg/mL).

An MIC [33] of 1.84 µM (≈ 4.6 µg/mL), an MIC [34] of 1.84 µM (≈ 4.6 µg/mL) and an MIC [30] of 3.67 µM (≈ 9.18 µg/mL) were found for `CC(C)C[C@H](NC(=O)[C@H](Cc1ccc(O)cc1)NC(=O)[C@H](C)NC(=O)[C@H](CCCN=C(N)N)NC(=O)[C@H](Cc1ccccc1)NC(=O)[C@H](Cc1ccc(O)cc1)NC(=O)[C@H](CCCCN)NC(=O)[C@@H](NC(=O)[C@H](Cc1c[nH]c2ccccc12)NC(=O)[C@H](CCCN=C(N)N)NC(=O)[C@H](Cc1cnc[nH]1)NC(=O)[C@H](CC(C)C)NC(=O)[C@H](Cc1ccccc1)NC(=O)[C@H](CCCN=C(N)N)NC(=O)[C@@H](NC(=O)[C@H](Cc1ccc(O)cc1)NC(=O)[C@H](CCCCN)NC(=O)[C@@H](N)CCCN=C(N)N)C(C)C)C(C)C)C(=O)O` [RKYVRFLHRWVKYFRAYL] in this work. For the same molecule, the MIC [35] was 25.6 µM (≈ 64.1 µg/mL), the MIC [36] was 7.35 µM (≈ 18.4 µg/mL) and the MIC [37] was 7.35 µM (≈ 18.4 µg/mL).

An MIC [23] of 20 µM (≈ 26 µg/mL), an MIC [38] of 3.54 µM (≈ 4.59 µg/mL) and an MIC [39] of at least 80 µM were found for `CC[C@H](C)[C@H](NC(=O)[C@H](CCCN=C(N)N)NC(=O)[C@@H](NC(=O)[C@H](CCCN=C(N)N)NC(=O)[C@H](Cc1c[nH]c2ccccc12)NC(=O)[C@H](CCCN=C(N)N)NC(=O)[C@H](Cc1ccccc1)NC(=O)[C@H](CCCN=C(N)N)NC(=O)[C@@H]1CCCN1)[C@@H](C)CC)C(N)=O` [PRFRWRIRI] in this work. For the same molecule, the MIC [40] was at least 80 µM, the MIC [41] was 2.5 µM (≈ 3.25 µg/mL) and the MIC [42] was at least 80 µM. The MIC [43] was at least 80 µM and the MIC [44] was 2.5 µM (≈ 3.25 µg/mL).
